Measurements published in US7563771B2, “Synthetic single domain polypeptides mimicking apolipoprotein E” (UAB Research Foundation, priority 2002, dated 2009).
One block for each molecule: values may come before it. Peptide text beside a SMILES is read from it.

Tests used:
[1] = Solubility of peptide and peptide:DMPC complexes
plasma cholesterol [2] = test: Plasma cholesterol after intravenous injection into fasted apo E null mice; format: in vivo
Experimental: The peptides were dissolved in PBS pH=5.0. Control mice (n=5) received PBS pH=5.0. Data shown represent mean±SEM.
Effects on cholesterol levels of peptide Ac-(R)14L-NH2 analog 2 (at 100 μg/mouse), administered intravenously into fasted apo E null mice as free peptide or as peptide:DMPC complexes at two pH levels. n=5 in all cases is shown in FIG. 11. Peptides were dissolved in PBS at the pH shown. Data shown represent mean±SEM.
Blood samples were taken immediately before injection and at 2 minutes and at 5 hours after injection and measured for cholesterol. A control of only PBS was also measured. Total cholesterol in the blood samples was measured, and is expressed in FIG. 4 as mean±SEM. […] However, the reduction in plasma cholesterol was in the lipoproteins, including HDL. […] Feces were collected for 24 hours following injection of 100 μg of Ac-(R)18L-NH2:DMPC complexes (n=2) or PBS (n=5). Fecal sterols were extracted, and total cholesterol was determined manually (Sigma Infinity). […] Total feces were collected from individually-caged mice for 24 hours following intravenous injection of Ac-(R)18L-NH2 into apo E null mice at a dose of 100 μg/mouse. Total 24-hour fecal cholesterol was then calculated. Feces from each mouse were weighed, lyophilized, and then re-weighed. 100 mg dried feces was then homogenized, and total lipids were extracted. The dried extract was resuspended in isopropanol, and cholesterol was measured manually. Data shown in FIG. 6 are mean±SEM for control and mean±range for peptide.
This experiment is carried out to show the usefulness of the peptides of the invention in vivo for lowering serum cholesterol. Peptide or peptide-lipid complexes were administered intravenously to mice. After some time period (as specifically shown in various figures), plasma samples were obtained by performing a retro-orbital bleed of the animals. The samples were analyzed by the column lipoprotein profile as previously described (Garber, D. et al. J. Lipid Res. 2000, 41:1020-1026). Briefly, 5 to 10 μl of the plasma was analyzed using a single superose (Pharmacia, Piscataway, N.J.) column. Immediately following the column run, cholesterol reagent is introduced through a mixing tee, and the eluent:reagent mixture enters a post column reaction coil. Cholesterol content of the reaction mixture is determined at 500 nm spectrophotometrically and the data points are collected into a computer. The resulting profiles are decomposed into component peaks and analyzed for relative area using PeakFit® computer software (SPSS Science, Chicago, Ill.). Absolute cholesterol value for total cholesterol is determined by comparisons with control samples of known values. The results would show a decrease in serum cholesterol in the subjects that received the polypeptides of the invention.

plasma cholesterol [3] = test: Plasma cholesterol in dyslipidemic mouse models; format: in vivo; details: several dyslipidemic mouse models, dose-dependent manner
Experimental: These studies were carried out to assess the bioactivity of the single domain R-18L peptides in vivo and compare its activity with the known activity of a dual domain Apo-E derived peptide. In this case, the bioactivity refers to the activity of lowering serum cholesterol in a subject (e.g., in a transgenic mouse). In this example, the 18L peptide analogs were administered to dyslipidemic mice.

[4] = Toxicity of intravenously administered peptide to mice; format: in vivo; details: 100 μg/mouse; for toxicity to mice, in words: intravenously
LDL from LDL-R null mice = test: Association of 125I-labelled peptide with plasma lipoproteins (CLiP profile, radioactivity of fractions); format: binding, LDL-R null mouse
Experimental: Peptide [^125I]Ac-(R)18L-NH2 was mixed with plasma from an LDL-R null mouse at a proportion of 100 μg peptide:1 mL plasma. The plasma lipoprotein profile was determined using the CLiP method (Garber and Anantharamaiah, J. Lipid. Res., 2000), and fractions were collected for measurement of radioactivity. Thus, peptide:lipid complexes are good candidates for administration that would result in enhanced uptake of atherogenic lipoproteins. The effect of the single domain peptide of the invention should last longer than any dual domain peptide since lipid-associated peptide is helical and the backbone is not accessible for proteolytic cleavage (degradation). Thus, several slow-release formulations of peptides with lipids are tested to determine the optimal formulation for delivery.

HepG2 cells = test: Uptake of 125I-LDL and 125I-VLDL by HepG2 cells in presence of peptide; format: cell-based
Experimental: These experiments were performed to test the bioactivity of the R-18L peptide in cell culture. […] Specifically, ^125I-LDL and ^125I-VLDL and the R-18L peptide were incubated with HepG2 cells in vitro for 2 hours to determine the cellular uptake of the iodinated compounds. […] H/H represent uptake of the lipoproteins in cells treated with heparinase/heparitinase. […] In case of VLDL, the peptide-mediated uptake appeared to be predominantly via an HSPG pathway. […] Examples of atherogenic lipoproteins are VLDL and LDL.
This experiment was carried out to follow the events subsequent to the binding of atherogenic lipoproteins to cultured cells. HepG2 cells (obtained from American Type Culture Collection (ATCC), Manassas, Va.) are used for determining peptide-mediated enhanced uptake of LDL or VLDL. Cells are grown in DMEM in six-well plates and used at 75% to 90% confluence. The seeding density of the cells that is used is 1.5-3.0×10^5 cells/ml. Cells are treated with DMEM containing lipoprotein-deficient serum (LPDS) 24 h prior to use to upregulate […] with the indicated concentration (0 to 50 μg of ^125I-LDL) at 4° C. for 2 h in presence or absence of peptides. Nonspecific binding is assessed in the presence of 50-fold excess of unlabelled LDL with or without peptides. After washing with ice-cold PBS, (containing 2 mg/ml BSA) to remove excess labeled lipoproteins, cells are incubated with excess dextran sulfate (4 mg/ml Pharmacia, Mr of 500,000) or heparin (Sigma Chemical Co., St. Louis, Mo., 10 mg/ml) for 1 h to release specifically bound ^125I-LDL. The counts in the dextran sulfate wash reflect the amount of LDL bound to cells. Cells are then washed with PBS and then dissolved in 0.1 N NaOH and a 0.5 ml aliquot of the cells suspension is counted. The counts reflect the amount of LDL internalized. The amount of protein is estimated using the Lowry method. Degradation of LDL is assessed by precipitating ^125I-LDL using 17% […] acid and incubating at 4° C. for 30 min. The precipitate is removed by centrifugation. The supernatant is treated with 10 μl of 40% KI and 40 μl of 10% hydrogen peroxide. The free ^125I is extracted with 2 ml chloroform. The upper aqueous layer is then counted for radioactivity. These counts represent the amount of monoiodi-tyrosine produced by the degradation of apo B in lipoproteins. Cell surface HSPG is removed by treating cells with heparinase and heparitinase (Sigma Chemical Co., St. Louis, Mo.) at a concentration of 3 u/ml of medium for 2 h at 37° C. In all cell experiments an average value of triplicate experiments are considered. Counts are detected inside the cultured cells and it is shown that LDL and VLDL are bound, internalized and degraded in the cultured cells in the presence of the peptide of the invention.

erythrocytes = test: Hemolysis of erythrocytes (hemoglobin content of supernatant, absorbance at 540 nm); format: cell-based
Experimental: This example was performed to test the affect of amino acid residue changes on the lytic nature of peptides of the invention. Lysine residues, which resided on the polar face of the single domain peptide, were substituted with arginine and such altered peptides were tested for lytic ability. Similarly, in other peptides of the invention, lysine residues on the polar face of the single domain peptide of the invention were dimethylated. These altered peptides neutralized the hemolytic property of the 18 L peptide. A suspension of erythrocytes (10^6 cells/ml) in phosphate-buffered saline with and without peptide (10 ml of […] peptide solution) was incubated for 10 min at 37° C. Hemolysis was expressed as hemoglobin content (absorbance at 540 nm) of the supernatant after centrifugation at 16,000×g for 3 min. Hemoglobin content as measured in the presence of 0.1% Triton X-100 was taken as 100% hemolysis.

solubility ([1]; pH=5.0): freely soluble | solubility ([1]; pH=7.4): only partially soluble | effect of DMPC on the suspension ([1]; pH=7.4, addition of DMPC at a 1:1 ratio (w/w)): completely clarified this suspension
Molecule: CC[C@H](C)[C@H](NC(=O)[C@H](Cc1ccccc1)NC(=O)[C@H](CCCNC(=N)N)NC(=O)[C@H](Cc1c[nH]c2ccccc12)NC(=O)[C@@H](NC(=O)[C@H](CO)NC(=O)CNC(=O)[C@H](Cc1ccc(O)cc1)NC(=O)[C@H](Cc1ccccc1)NC(=O)[C@H](CCCNC(=N)N)NC(=O)[C@H](CCCNC(=N)N)NC(C)=O)[C@@H](C)CC)C(=O)N[C@@H](CCCNC(=N)N)C(=O)N[C@@H](C)C(=O)N[C@@H](Cc1ccccc1)C(N)=O [Ac-(R)14L-NH2 analog 2] (Ac-RRFYGSIWRFIRAF-NH2)

Molecule: Ac-GIRRFLGSIWRFIRAFYG-NH2 [R-18L]
cholesterol reduction, dose dependency (plasma cholesterol [2]; 50 μg of peptide per mouse, i.v., 5 hours, limited to VLDL and IDL/LDL fractions (FIG. 5)): substantial reduction | reducing plasma cholesterol (plasma cholesterol [2]; 50 μg/mouse, i.v., PBS pH=5.0, fasting apo E null mice (FIG. 10)): effective in reducing plasma cholesterol | duration of plasma cholesterol reduction (plasma cholesterol [2]; 100 μg/mouse i.v. (FIG. 4)): maintained for at least five hours | reduction of plasma cholesterol (plasma cholesterol [2]; 100 μg/mouse i.v., within two minutes, versus basal level (FIG. 4)): approximately 90% | lowering plasma cholesterol in apo E(−) mice compared with dual domain peptide (plasma cholesterol [2]; apo E(−) mice): more effectively than the dual domain peptide | reducing plasma cholesterol (plasma cholesterol [3]): effective in reducing plasma cholesterol | toxicity to mice, in words [4]: completely normal | counts per minute in VLDL peak (LDL from LDL-R null mice; FIG. 7, elution volume c. 12 mL): ~50 CPM | counts per minute in LDL peak (LDL from LDL-R null mice; FIG. 7, elution volume c. 16 mL): ~150 CPM | counts per minute in HDL peak (LDL from LDL-R null mice; FIG. 7, elution volume c. 18 mL): ~350 CPM | uptake of LDL by HepG2 cells (HepG2 cells; 125I-LDL, 2 hours incubation): effective in enhancing the uptake | uptake of VLDL by HepG2 cells (HepG2 cells; 125I-VLDL, 2 hours incubation): effective in enhancing the uptake | enhanced uptake of VLDL in cells treated with heparinase/heparitinase (H/H) (HepG2 cells; HepG2 cells, H/H treated): completely abrogated | uptake of LDL in cells treated with heparinase/heparitinase (H/H) (HepG2 cells; HepG2 cells, H/H treated): significant enhancement of uptake

Molecule: GIKKFLGSIWKFIKAFVG [18L, reference compound]
mice that died [4]: four out of six | toxicity to mice, in words [4]: highly toxic | hemolysis (lytic) (erythrocytes): 80% | hemolysis / cell lysis, in words (erythrocytes): caused marked hemolysis

Molecule: GIRRFYGSIWRFIR (Ac-GIRRFYGSIWRFIR-NH2) [Ac-(R)14L-NH2 analog 1]
reducing plasma cholesterol (plasma cholesterol [2]; free peptide, 100 μg/mouse, i.v., PBS pH=5, fasting apo E null mice (FIG. 10)): not effective
